Source: publication PMC8305873, “Design and heterologous expression of a novel dimeric LL37 variant in Pichia pastoris” (Microbial Cell Factories, 2021)
≈ marks a conversion by molar mass, not a printed value. Read-outs that look alike come from different tables or passages of the source. Where a SMILES comes first, the peptide text is derived from it.

Tests used:
[1] = tested on: E. coli ATCC 078; format: cell-based, Escherichia coli; details: ATCC 078
Experimental: (§1) All experiments were conducted at least three different times.

[2] = tested on: E. coli ATCC 25922; format: cell-based, Escherichia coli; details: ATCC 25922
Experimental: as §1

[3] = tested on: E. coli UB 1005; format: cell-based, Escherichia coli
Experimental: as §1

[4] = tested on: S. Typhimurium ATCC 14028; format: cell-based, Salmonella Typhimurium; details: ATCC 14028
Experimental: as §1

[5] = tested on: S. Typhimurium C 7731; format: cell-based, Salmonella Typhimurium; details: C 7731
Experimental: as §1

[6] = tested on: P. aeruginosa ATCC 27853; format: cell-based, Pseudomonas aeruginosa; details: ATCC 27853
Experimental: as §1

[7] = tested on: S. aureus ATCC 25923; format: cell-based, Staphylococcus aureus; details: ATCC 25923
Experimental: as §1

[8] = tested on: S. aureus ATCC 29213; format: cell-based, Staphylococcus aureus; details: ATCC 29213
Experimental: as §1

[9] = tested on: S. epidermidis ATCC 12228; format: cell-based, Staphylococcus epidermidis; details: ATCC 12228
Experimental: as §1

[10] = tested on: S. faecalis ATCC 29212; format: cell-based, Streptococcus faecalis; details: ATCC 29212
Experimental: as §1

[11] = tested on: E. coli ATCC 25922; format: cell-based, Escherichia coli; details: ATCC 25922; remark: listed apart in the source
Experimental: as §1
The salt ions were added to the BSA solution and configured into different final concentrations of salt ions (150 mM NaCl, 4.5 mM KCl, 6 µM NH4Cl, 8 µM ZnCl2, 1 mM MgCl2, 2 mM CaCl2, and 4 µM FeCl3) solutions. The method discribed as above was referred to determine the MIC value of rLG against E. coli ATCC 25922 in the presence of different concentrations of salt ions.

[12] = tested on: E. coli ATCC 25922; format: cell-based, Escherichia coli; details: ATCC 25922; remark: listed apart in the source
[13] = tested on: human red blood cells; assay: Hemolytic activity assay; format: cell-based; details: for MHC (minimum hemolysis concentration): concentration of peptide that causes 20% hemolysis, human red blood cells in 10 mM PBS pH 7.4, 37 °C 1 h, OD570
[14] = tested on: bacteria; details: when no antimicrobial activity is detected at 32 µM, 64 µM is used
Experimental: The minimum inhibitory concentration (MIC) is a vital indicator for evaluating the antimicrobial activity of AMPs. The determination method refers to the improved method of Dong et al.. The strains to be tested were inoculated in Mueller Hinton broth (MHB) medium and cultured at 200 rpm and 37 °C until the logarithmic growth phase, and then the number of colonies was adjusted to approximately 10^5 CFU/mL. The 95 µL of bovine serum albumin (BSA) diluent (0.01% acetic acid and 0.2% BSA) and 5 µL of peptide (1.28 mM) were added to the first row of the 96-well plate, and 50 µL of BSA diluent was added to the other columns. After mixing in the first row, 50 µL of the mixture was aspirated and added to the second column and so on to the 11th row. After being cultured at 37 °C for 18–24 h, the minimum peptide concentration required to inhibit bacterial growth was the MIC value. All experiments were conducted at least three different times.
The safety of peptides is usually assessed by hemolytic activity. The collected blood of type B from healthy donor was centrifuged at 1000×g for 5 min to collect red blood cells. The red blood cells were then washed and resuspended in 10 mM PBS (pH 7.4). Fifty microliters of diluted red blood cells and an equal volume of peptide solution (2–128 µM) were incubated in a 96-well plate at 37 °C for 1 h. The red blood cell suspension treated with 0.1% Triton X-100 was used as a positive control (100% hemolysis), and untreated blood cell suspension was used as a negative control. The 96-well plate was centrifuged at 1000×g for 5 min at 4 °C, and then the supernatant was transferred to a new 96-well plate. The absorbance at OD570 was measured with a microplate reader.

| Structure (SMILES) | MIC [1] | MIC [2] | MIC ([3]; UB 1005) | MIC [4] | MIC [5] | MIC [6] | MIC [7] | MIC [8] | MIC [9] | MIC [10] | MHC (minimum hemolysis concentration) [13] | GM (geometric mean of the MIC value of the peptide against bacteria) [14] | other results |
| --- | --- | --- | --- | --- | --- | --- | --- | --- | --- | --- | --- | --- | --- |
| CC[C@H](C)[C@H](NC(=O)[C@H](CCCNC(=N)N)NC(=O)[C@H](CCC(N)=O)NC(=O)[C@@H](NC(=O)[C@@H](NC(=O)[C@H](CCCNC(=N)N)NC(=O)[C@H](CCCCN)NC(=O)[C@@H](N)Cc1ccccc1)[C@@H](C)CC)C(C)C)C(=O)N[C@@H](CCCCN)C(=O)N[C@@H](CCCNC(=N)N)C(=O)N[C@@H](Cc1ccccc1)C(=O)N[C@@H](CC(C)C)C(=O)N[C@@H](CCCNC(=N)N)C(=O)O [FR] (H-FKRIVQRIKRFLR-OH) | 8.00 ± 0.00 µM (≈ 14.1 µg/mL) | 7.11 ± 1.66 µM (≈ 12.5 µg/mL) | 2.44 ± 0.83 µM (≈ 4.29 µg/mL) | 8.00 ± 0.00 µM (≈ 14.1 µg/mL) | 8.00 ± 0.00 µM (≈ 14.1 µg/mL) | 16.00 ± 0.00 µM (≈ 28.2 µg/mL) | 16.00 ± 0.00 µM (≈ 28.2 µg/mL) | 8.00 ± 0.00 µM (≈ 14.1 µg/mL) | 3.78 ± 0.63 µM (≈ 6.65 µg/mL) | 4.00 ± 0.00 µM (≈ 7.04 µg/mL) | – | – | MIC under physiological salt concentration, CaCl2 [11]: > 32 µM; MIC under physiological salt concentration, FeCl3 [11]: 16 µM; MIC under physiological salt concentration, GM [11]: 19.50 µM; MIC under physiological salt concentration, KCl [11]: 8 µM; MIC under physiological salt concentration, MgCl2 [11]: 32 µM; MIC under physiological salt concentration, NH4Cl [11]: 8 µM; MIC under physiological salt concentration, NaCl [11]: > 32 µM; MIC under physiological salt concentration, ZnCl2 [11]: 8 µM; MIC, Control [12]: 8 µM (≈ 14.1 µg/mL) |
| CC[C@H](C)[C@H](NC(=O)[C@H](CCCNC(=N)N)NC(=O)[C@H](CCC(N)=O)NC(=O)[C@@H](NC(=O)[C@@H](NC(=O)[C@H](CCCNC(=N)N)NC(=O)[C@H](CCCCN)NC(=O)[C@@H](N)Cc1ccccc1)[C@@H](C)CC)C(C)C)C(=O)N[C@@H](CCCCN)C(=O)N[C@@H](CC(=O)O)C(=O)N[C@@H](Cc1ccccc1)C(=O)N[C@@H](CC(C)C)C(=O)N[C@@H](CCCNC(=N)N)C(=O)O [FD] (H-FKRIVQRIKDFLR-OH) | 16.00 ± 0.00 µM (≈ 27.5 µg/mL) | 32.00 ± 0.00 µM (≈ 55 µg/mL) | 16.00 ± 0.00 µM (≈ 27.5 µg/mL) | 32.00 ± 0.00 µM (≈ 55 µg/mL) | 32.00 ± 0.00 µM (≈ 55 µg/mL) | > 32 µM | > 32 µM | > 32 µM | > 32 µM | > 32 µM | – | – | – |
| CC[C@H](C)[C@H](NC(=O)[C@H](CCCNC(=N)N)NC(=O)[C@H](CCC(N)=O)NC(=O)[C@@H](NC(=O)[C@@H](NC(=O)[C@H](CCCNC(=N)N)NC(=O)[C@H](CCCCN)NC(=O)[C@H](Cc1ccccc1)NC(=O)[C@H](CO)NC(=O)CNC(=O)CNC(=O)CNC(=O)CNC(=O)[C@H](CCCNC(=N)N)NC(=O)[C@H](CC(C)C)NC(=O)[C@H](Cc1ccccc1)NC(=O)[C@H](CCCNC(=N)N)NC(=O)[C@H](CCCCN)NC(=O)[C@@H](NC(=O)[C@H](CCCNC(=N)N)NC(=O)[C@H](CCC(N)=O)NC(=O)[C@@H](NC(=O)[C@@H](NC(=O)[C@H](CCCNC(=N)N)NC(=O)[C@H](CCCCN)NC(=O)[C@@H](N)Cc1ccccc1)[C@@H](C)CC)C(C)C)[C@@H](C)CC)[C@@H](C)CC)C(C)C)C(=O)N[C@@H](CCCCN)C(=O)N[C@@H](CCCNC(=N)N)C(=O)N[C@@H](Cc1ccccc1)C(=O)N[C@@H](CC(C)C)C(=O)N[C@@H](CCCNC(=N)N)C(=O)O [LG] (H-FKRIVQRIKRFLRGGGGSFKRIVQRIKRFLR-OH) | – | – | 1.22 ± 0.41 µM (≈ 4.66 µg/mL) | – | – | – | – | – | – | – | 64 µM | 2.00 µM | MIC ([3]; Table 3, recombinant vs synthetic LG, mean ± SD of three independent experiments): 1.33 ± 0.25 µM |
| CC[C@H](C)[C@H](NC(=O)[C@H](CCCNC(=N)N)NC(=O)[C@H](CCC(N)=O)NC(=O)[C@@H](NC(=O)[C@@H](NC(=O)[C@H](CCCNC(=N)N)NC(=O)[C@H](CCCCN)NC(=O)[C@H](Cc1ccccc1)NC(=O)[C@H](C)NC(=O)[C@H](CCCCN)NC(=O)[C@H](C)NC(=O)[C@H](C)NC(=O)[C@H](C)NC(=O)[C@H](CCC(=O)O)NC(=O)[C@H](C)NC(=O)[C@H](CCCNC(=N)N)NC(=O)[C@H](CC(C)C)NC(=O)[C@H](Cc1ccccc1)NC(=O)[C@H](CCCNC(=N)N)NC(=O)[C@H](CCCCN)NC(=O)[C@@H](NC(=O)[C@H](CCCNC(=N)N)NC(=O)[C@H](CCC(N)=O)NC(=O)[C@@H](NC(=O)[C@@H](NC(=O)[C@H](CCCNC(=N)N)NC(=O)[C@H](CCCCN)NC(=O)[C@@H](N)Cc1ccccc1)[C@@H](C)CC)C(C)C)[C@@H](C)CC)[C@@H](C)CC)C(C)C)C(=O)N[C@@H](CCCCN)C(=O)N[C@@H](CCCNC(=N)N)C(=O)N[C@@H](Cc1ccccc1)C(=O)N[C@@H](CC(C)C)C(=O)N[C@@H](CCCNC(=N)N)C(=O)O [LA] (H-FKRIVQRIKRFLRAEAAAKAFKRIVQRIKRFLR-OH) | 2.44 ± 0.83 µM (≈ 10 µg/mL) | 2.22 ± 0.63 µM (≈ 9.14 µg/mL) | 1.11 ± 0.31 µM (≈ 4.57 µg/mL) | 4.44 ± 1.25 µM (≈ 18.3 µg/mL) | 1.11 ± 0.31 µM (≈ 4.57 µg/mL) | 4.44 ± 1.25 µM (≈ 18.3 µg/mL) | > 32 µM | > 32 µM | > 32 µM | > 32 µM | 32 µM | 8.00 µM | – |
| CC[C@H](C)[C@H](NC(=O)[C@H](CCCNC(=N)N)NC(=O)[C@H](CCC(N)=O)NC(=O)[C@@H](NC(=O)[C@@H](NC(=O)[C@H](CCCNC(=N)N)NC(=O)[C@H](CCCCN)NC(=O)[C@H](Cc1ccccc1)NC(=O)[C@H](CCCNC(=N)N)NC(=O)[C@H](CC(C)C)NC(=O)[C@H](Cc1ccccc1)NC(=O)[C@H](CCCNC(=N)N)NC(=O)[C@H](CCCCN)NC(=O)[C@@H](NC(=O)[C@H](CCCNC(=N)N)NC(=O)[C@H](CCC(N)=O)NC(=O)[C@@H](NC(=O)[C@@H](NC(=O)[C@H](CCCNC(=N)N)NC(=O)[C@H](CCCCN)NC(=O)[C@@H](N)Cc1ccccc1)[C@@H](C)CC)C(C)C)[C@@H](C)CC)[C@@H](C)CC)C(C)C)C(=O)N[C@@H](CCCCN)C(=O)N[C@@H](CCCNC(=N)N)C(=O)N[C@@H](Cc1ccccc1)C(=O)N[C@@H](CC(C)C)C(=O)N[C@@H](CCCNC(=N)N)C(=O)O [(FR)2] (H-FKRIVQRIKRFLRFKRIVQRIKRFLR-OH) | 1.11 ± 0.31 µM (≈ 3.89 µg/mL) | 1.22 ± 0.41 µM (≈ 4.27 µg/mL) | 1.00 ± 0.00 µM (≈ 3.5 µg/mL) | 2.22 ± 0.63 µM (≈ 7.78 µg/mL) | 1.11 ± 0.31 µM (≈ 3.89 µg/mL) | 2.22 ± 0.63 µM (≈ 7.78 µg/mL) | 3.78 ± 0.63 µM (≈ 13.2 µg/mL) | 2.00 ± 0.00 µM (≈ 7 µg/mL) | 2.00 ± 0.00 µM (≈ 7 µg/mL) | 2.00 ± 0.00 µM (≈ 7 µg/mL) | 16 µM | 1.62 µM | hemolysis (blood cells destroyed) ([13]; at the highest peptide concentration (128 μM), human red blood cells, 37 °C 1 h, 0.1% Triton X-100 = 100%): approximately 43% |
